Data reported in patent US11117947B2, “Double-acylated GLP-1 derivatives” (Novo Nordisk A/S, priority 2011, dated 2021).
Read-outs that look alike come from different tables or passages of the source. Numbered stars: 1 amine (or outer) side, 2 acyl side, 3 side chain; on linkers, the order of the positions; unused ones are H or OH. Side chains are listed from the residue outwards. Peptide text beside a SMILES is read from it. * marks the point of attachment. Decanoyl(10-(4-HOOC-PhO)) = O=C(O)c1ccc(OCCCCCCCCCC(=O)*)cc1; γGlu = O=C(O)[C@H](CCC(=O)[*:2])N[*:1]; C14 diacid = O=C(O)CCCCCCCCCCCCC(=O)*; AEEA = NCCOCCOCC(=O)O

Target: T1, human GLP-1 receptor (Homo sapiens, UniProt P43220)
T1 construct: expressed in transfected cells; membranes
Experiment: GLP-1 receptor binding: displacement of 125I-GLP-1 (SPA) at low and high albumin
Protocol: The purpose of this experiment is to investigate the binding to the GLP-1 receptor of the GLP-1 derivatives, and how the binding is potentially influenced by the presence of albumin. This is done in an in vitro experiment as described below.
In order to test the binding of the derivatives to albumin, the assay was performed with a low concentration of albumin (0.001%—corresponding to the residual amount thereof in the tracer), as well as with a high concentration of albumin (2.0% added). A shift in the binding affinity, IC50, is an indication that the peptide in question binds to albumin, and thereby a prediction of a potential protracted pharmacokinetic profile of the peptide in question in animal models.
Species (in vitro): Hamster
Biological End Point: Receptor Binding
A stable transfected cell line and a high expressing clone were selected for screening. The cells were grown at 5% CO2 in DMEM, 10% FCS, 1% Pen/Strep (Penicillin/Streptomycin) and 1.0 mg/ml of the selection marker G418.
The cells (approx. 80% confluence) were washed twice in PBS and harvested with Versene (aqueous solution of the tetrasodium salt of ethylenediaminetetraacetic acid), following which they were separated by centrifugation at 1000 rpm for 5 min. The cells/cell pellet must be kept on ice to the extent possible in the subsequent steps. The cell pellet was homogenised with Ultrathurrax for 20-30 seconds in a suitable amount of Buffer 1 (depending on the amount of cells, but e.g. 10 ml). The homogenate was centrifuged at 20000 rpm for 15 minutes. The pellet was resuspended (homogenised) in 10 ml Buffer 2 and re-centrifuged. This step was repeated once more. The resulting pellet was resuspended in Buffer 2, and the protein concentration was determined. The membranes were stored at minus 80° C.
Buffer 1: 20 mM Na-HEPES+10 mM EDTA, pH 7.4
Buffer 2: 20 mM Na-HEPES+0.1 mM EDTA, pH 7.4
Test compounds, membranes, SPA-particles and [^125I]-GLP-1(7-36)NH2 were diluted in assay buffer. 50 ul (micro liter) HSA (“high albumin” experiment containing 2% HSA), or buffer (“low albumin” experiment containing 0.001% HSA), was added to Optiplate, and 25 ul of test compounds were added. 5-10 ug membrane protein/sample was added (50 ul) corresponding to 0.1-0.2 mg protein/ml (to be preferably optimised for each membrane preparation). SPA-particles (Wheatgerm agglutinin SPA beads, Perkin Elmer, #RPNQ0001) were added in an amount of 0.5 mg/well (50 ul). The incubation was started with [^125I]-GLP-1]-(7-36)NH2 (final concentration 0.06 nM corresponding to 49.880 DPM, 25 ul). The plates were sealed with PlateSealer and incubated for 120 minutes at 30° C. while shaking. The plates were centrifuged (1500 rpm, 10 min) and counted in Topcounter.

[1] = low albumin, 0.001% HSA, read-out: IC50/nM (low HSA)
[2] = high albumin, 2.0% HSA, read-out: IC50/nM (high HSA)

T1 sequence (P43220 24-463): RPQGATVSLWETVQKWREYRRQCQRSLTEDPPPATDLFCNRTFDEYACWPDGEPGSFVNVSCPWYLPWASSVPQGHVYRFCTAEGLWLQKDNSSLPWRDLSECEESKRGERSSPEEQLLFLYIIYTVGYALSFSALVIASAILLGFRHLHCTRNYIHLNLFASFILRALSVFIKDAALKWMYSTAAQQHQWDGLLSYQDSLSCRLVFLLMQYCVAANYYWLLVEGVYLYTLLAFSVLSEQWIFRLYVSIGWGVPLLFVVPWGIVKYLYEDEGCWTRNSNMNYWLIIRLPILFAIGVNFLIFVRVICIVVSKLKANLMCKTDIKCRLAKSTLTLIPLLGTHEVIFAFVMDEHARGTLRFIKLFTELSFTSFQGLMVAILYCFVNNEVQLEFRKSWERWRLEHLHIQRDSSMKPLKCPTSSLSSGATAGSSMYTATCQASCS

Row | SMILES | IC50 [1] [nM] | IC50 [2] [nM]
1 | CC[C@H](C)[C@H](NC(=O)[C@H](Cc1ccccc1)NC(=O)[C@H](CCCCNC(=O)COCCOCCNC(=O)COCCOCCNC(=O)CC[C@H](NC(=O)CCCCCCCCCOc1ccc(C(=O)O)cc1)C(=O)O)NC(=O)[C@H](CCCNC(=N)N)NC(=O)[C@H](C)NC(=O)[C@H](C)NC(=O)[C@H](CCC(N)=O)NC(=O)[C@H](CCC(=O)O)NC(=O)[C@H](CCC(=O)O)NC(=O)[C@H](CC(C)C)NC(=O)[C@H](Cc1ccc(O)cc1)NC(=O)[C@H](CO)NC(=O)[C@H](CO)NC(=O)[C@@H](NC(=O)[C@H](CC(=O)O)NC(=O)[C@H](CO)NC(=O)[C@@H](NC(=O)[C@H](Cc1ccccc1)NC(=O)[C@@H](NC(=O)CNC(=O)[C@H](CCC(=O)O)NC(=O)[C@H](C)NC(=O)[C@@H](N)Cc1c[nH]cn1)[C@@H](C)O)[C@@H](C)O)C(C)C)C(=O)N[C@@H](C)C(=O)N[C@@H](Cc1c[nH]c2ccccc12)C(=O)N[C@@H](CC(C)C)C(=O)N[C@H](C(=O)N[C@@H](CCCNC(=N)N)C(=O)NCC(=O)N[C@@H](CCCNC(=N)N)C(=O)N[C@@H](CCCCNC(=O)COCCOCCNC(=O)COCCOCCNC(=O)CC[C@H](NC(=O)CCCCCCCCCOc1ccc(C(=O)O)cc1)C(=O)O)C(=O)O)C(C)C [Example 1, N^ε27-[2-[2-[2-[[2-[2-[2-[[(4S)-4-carboxy-4-[10-(4-carboxyphenoxy)decanoylamino]butanoyl]amino]ethoxy]ethoxy]acetyl]amino]ethoxy]ethoxy]acetyl], N^ε37-[2-[2-[2-[[2-[2-[2-[[(4S)-4-carboxy-4-[10-(4-carboxyphenoxy)decanoylamino]butanoyl]amino]ethoxy]ethoxy]acetyl]amino]ethoxy]ethoxy]acetyl]-[Glu^22,Arg^26,Lys^27,Arg^34,Lys^37]-GLP-1-(7-37)-peptide] (H-HAEGTFTSDVSSYLEEQAARK([AEEA-AEEA-γGlu-Decanoyl(10-(4-HOOC-PhO))])FIAWLVRGRK([AEEA-AEEA-γGlu-Decanoyl(10-(4-HOOC-PhO))])-OH; N-terminus and C-terminus assumed) | 0.19 | 
2 | CC[C@H](C)[C@H](NC(=O)[C@H](Cc1ccccc1)NC(=O)[C@H](CCCCNC(=O)COCCOCCNC(=O)COCCOCCNC(=O)CC[C@H](NC(=O)CCCCCCCCCCCCC(=O)O)C(=O)O)NC(=O)[C@H](CCCNC(=N)N)NC(=O)[C@@H](NC(=O)[C@H](CCCCNC(=O)COCCOCCNC(=O)COCCOCCNC(=O)CC[C@H](NC(=O)CCCCCCCCCCCCC(=O)O)C(=O)O)NC(=O)[C@H](CCC(N)=O)NC(=O)[C@H](CCC(=O)O)NC(=O)[C@H](CCC(=O)O)NC(=O)[C@H](CC(C)C)NC(=O)[C@H](Cc1ccc(O)cc1)NC(=O)[C@H](CO)NC(=O)[C@H](CO)NC(=O)[C@@H](NC(=O)[C@H](CC(=O)O)NC(=O)[C@H](CO)NC(=O)[C@@H](NC(=O)[C@H](Cc1ccccc1)NC(=O)[C@@H](NC(=O)CNC(=O)[C@H](CCC(=O)O)NC(=O)[C@H](C)NC(=O)[C@@H](N)Cc1c[nH]cn1)[C@@H](C)O)[C@@H](C)O)C(C)C)C(C)C)C(=O)N[C@@H](C)C(=O)N[C@@H](Cc1c[nH]c2ccccc12)C(=O)N[C@@H](CC(C)C)C(=O)N[C@H](C(=O)NCC(=O)O)C(C)C [Example 27, N^ε24-[2-[2-[2-[[2-[2-[2-[[(4S)-4-carboxy-4-(13-carboxytridecanoylamino)butanoyl]amino]ethoxy]ethoxy]acetyl]amino]ethoxy]ethoxy]acetyl], N^ε27-[2-[2-[2-[[2-[2-[2-[[(4S)-4-carboxy-4-(13-carboxytridecanoylamino)butanoyl]amino]ethoxy]ethoxy]acetyl]amino]ethoxy]ethoxy]acetyl]-[Glu^22,Lys^24, Val^25, Arg^26, Lys^27,Gly^34]-GLP-1-(7-34)-peptide] (H-HAEGTFTSDVSSYLEEQK([AEEA-AEEA-γGlu-C14 diacid])VRK([AEEA-AEEA-γGlu-C14 diacid])FIAWLVG-OH) |  | > 1000
3 | CC[C@H](C)[C@H](NC(=O)[C@H](Cc1ccccc1)NC(=O)[C@H](CCCCNC(=O)COCCOCCNC(=O)COCCOCCNC(=O)CC[C@H](NC(=O)CCCCCCCCCOc1ccc(C(=O)O)cc1)C(=O)O)NC(=O)[C@H](CCCNC(=N)N)NC(=O)[C@@H](NC(=O)[C@H](CCCCNC(=O)COCCOCCNC(=O)COCCOCCNC(=O)CC[C@H](NC(=O)CCCCCCCCCOc1ccc(C(=O)O)cc1)C(=O)O)NC(=O)[C@H](CCC(N)=O)NC(=O)[C@H](CCC(=O)O)NC(=O)[C@H](CCC(=O)O)NC(=O)[C@H](CC(C)C)NC(=O)[C@H](Cc1ccc(O)cc1)NC(=O)[C@H](CO)NC(=O)[C@H](CO)NC(=O)[C@@H](NC(=O)[C@H](CC(=O)O)NC(=O)[C@H](CO)NC(=O)[C@@H](NC(=O)[C@H](Cc1ccccc1)NC(=O)[C@@H](NC(=O)CNC(=O)[C@H](CCC(=O)O)NC(=O)[C@H](C)NC(=O)[C@@H](N)Cc1c[nH]cn1)[C@@H](C)O)[C@@H](C)O)C(C)C)C(C)C)C(=O)N[C@@H](C)C(=O)N[C@@H](Cc1c[nH]c2ccccc12)C(=O)N[C@@H](CC(C)C)C(=O)N[C@H](C(=O)N[C@@H](CCCNC(=N)N)C(=O)NCC(=O)N[C@@H](CCCNC(=N)N)C(=O)NCC(=O)O)C(C)C [Example 28, N^ε24-[2-[2-[2-[[2-[2-[2-[[(4S)-4-carboxy-4-[10-(4-carboxyphenoxy)decanoylamino]butanoyl]amino]ethoxy]ethoxy]acetyl]amino]ethoxy]ethoxy]acetyl], N^ε27-[2-[2-[2-[[2-[2-[2-[[(4S)-4-carboxy-4-[10-(4-carboxyphenoxy)decanoylamino]butanoyl]amino]ethoxy]ethoxy]acetyl]amino]ethoxy]ethoxy]acetyl]-[Glu^22,Lys^24,Val^25,Arg^26,Lys^27,Arg^34]-GLP-1-(7-37)-peptide] (H-HAEGTFTSDVSSYLEEQK([AEEA-AEEA-γGlu-Decanoyl(10-(4-HOOC-PhO))])VRK([AEEA-AEEA-γGlu-Decanoyl(10-(4-HOOC-PhO))])FIAWLVRGRG-OH; N-terminus and C-terminus assumed) | 0.2 | 29
4 | CC[C@H](C)[C@H](NC(=O)[C@H](Cc1ccccc1)NC(=O)[C@H](CCCCNC(=O)CC[C@H](NC(=O)COCCOCCNC(=O)COCCOCCNC(=O)CCCCCCCCCCCCC(=O)O)C(=O)O)NC(=O)[C@H](CCCNC(=N)N)NC(=O)[C@@H](NC(=O)[C@H](CCCCNC(=O)CC[C@H](NC(=O)COCCOCCNC(=O)COCCOCCNC(=O)CCCCCCCCCCCCC(=O)O)C(=O)O)NC(=O)[C@H](CCC(N)=O)NC(=O)[C@H](CCC(=O)O)NC(=O)[C@H](CCC(=O)O)NC(=O)[C@H](CC(C)C)NC(=O)[C@H](Cc1ccc(O)cc1)NC(=O)[C@H](CO)NC(=O)[C@H](CO)NC(=O)[C@@H](NC(=O)[C@H](CC(=O)O)NC(=O)[C@H](CO)NC(=O)[C@@H](NC(=O)[C@H](Cc1ccccc1)NC(=O)[C@@H](NC(=O)CNC(=O)[C@H](CCC(=O)O)NC(=O)[C@H](C)NC(=O)[C@@H](N)Cc1c[nH]cn1)[C@@H](C)O)[C@@H](C)O)C(C)C)C(C)C)C(=O)N[C@@H](C)C(=O)N[C@@H](Cc1c[nH]c2ccccc12)C(=O)N[C@@H](CC(C)C)C(=O)N[C@H](C(=O)NCC(=O)O)C(C)C [Example 30, N^ε24-[(4S)-4-carboxy-4-[[2-[2-[2-[[2-[2-[2-(13-carboxytridecanoylamino)ethoxy]ethoxy]acetyl]amino]ethoxy]ethoxy]acetyl]amino]butanoyl], N^ε27-[(4S)-4-carboxy-4-[[2-[2-[2-[[2-[2-[2-(13-carboxytridecanoylamino)ethoxy]ethoxy]acetyl]amino]ethoxy]ethoxy]acetyl]amino]butanoyl]-[Glu^22,Lys^24, Val^25, Arg^26, Lys^27,Gly^34]-GLP-1-(7-34)-peptide] (H-HAEGTFTSDVSSYLEEQK([γGlu-AEEA-AEEA-C14 diacid])VRK([γGlu-AEEA-AEEA-C14 diacid])FIAWLVG-OH) |  | > 1000
